Activity calls are given as the source filed them.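 Rule for the calls: active = 50% or more inhibition of both lipases LYPLA1 and LYPLA2, with off-target enzymes other than ABHD6 below 50%; inactive = below 50% on either lipase, or hitting an off-target enzyme.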
Legend:
Test in all cases: competitive ABPP potency and off-target profiling of APT1/APT2 inhibitors – cell lysate, mouse brain membrane proteome, FP-Rh fluorescence, powders, selectivity assay for LYPLA1/LYPLA2 inhibitor project, late-stage follow-up (AID 743117)
[1] = tested on: LYPLA2; settings: gel-based ABPP FP-Rh fluorescence, at 100 µM (top of the series)
[2] = tested on: FAAH Selectivity; settings: gel-based ABPP FP-Rh fluorescence, measured here: FAAH Selectivity, anti-target concentration >50% inhibition, stronger effect = lower value
[3] = tested on: MAGL Selectivity; settings: gel-based ABPP FP-Rh fluorescence, measured here: MAGL Selectivity, anti-target concentration >50% inhibition, stronger effect = lower value
[4] = target: Monoacylglycerol lipase ABHD6 (Mus musculus) (UniProt Q8R2Y0); settings: gel-based ABPP FP-Rh fluorescence, measured here: ABHD6 Selectivity, anti-target concentration >50% inhibition, stronger effect = lower value
Chain of Monoacylglycerol lipase ABHD6 (Mus musculus) (Q8R2Y0 whole entry, looked up): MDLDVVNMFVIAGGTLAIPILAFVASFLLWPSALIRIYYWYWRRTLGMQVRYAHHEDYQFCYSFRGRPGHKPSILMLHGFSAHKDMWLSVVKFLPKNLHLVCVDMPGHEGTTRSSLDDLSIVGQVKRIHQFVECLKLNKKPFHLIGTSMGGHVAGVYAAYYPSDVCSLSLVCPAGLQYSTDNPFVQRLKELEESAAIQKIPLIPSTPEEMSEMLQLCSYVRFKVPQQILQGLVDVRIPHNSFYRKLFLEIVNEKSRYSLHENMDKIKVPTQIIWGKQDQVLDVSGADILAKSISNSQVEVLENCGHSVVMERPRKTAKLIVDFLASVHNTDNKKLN

[5] = target: ABHD4 Selectivity (UniProt Q8VD66); settings: gel-based ABPP FP-Rh fluorescence, measured here: ABHD4 Selectivity, anti-target concentration >50% inhibition, stronger effect = lower value
Chain of ABHD4 Selectivity (Q8VD66 whole entry, looked up): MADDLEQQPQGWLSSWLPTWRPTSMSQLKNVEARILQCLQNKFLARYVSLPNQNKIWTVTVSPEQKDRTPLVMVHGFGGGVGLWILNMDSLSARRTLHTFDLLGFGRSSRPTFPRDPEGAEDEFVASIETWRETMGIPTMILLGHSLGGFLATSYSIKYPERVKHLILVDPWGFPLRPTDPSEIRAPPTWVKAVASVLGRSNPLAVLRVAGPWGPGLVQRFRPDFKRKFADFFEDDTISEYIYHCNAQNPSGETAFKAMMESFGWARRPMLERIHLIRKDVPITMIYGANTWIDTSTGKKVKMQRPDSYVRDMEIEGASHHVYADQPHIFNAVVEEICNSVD

[6] = tested on: LYPLA1; settings: gel-based ABPP FP-Rh fluorescence, at 100 µM (top of the series)
[7] = tested on: ABHD12 Selectivity; settings: gel-based ABPP FP-Rh fluorescence, measured here: ABHD12 Selectivity, anti-target concentration >50% inhibition, stronger effect = lower value
[8] = tested on: APEH Selectivity; settings: gel-based ABPP FP-Rh fluorescence, measured here: APEH Selectivity, anti-target concentration >50% inhibition, stronger effect = lower value

For `O=C(ON1C(=O)C2CN(CCc3ccccc3)CCN2C1=O)N1CCC(CCc2ccc(Cl)cc2)CC1` (stereo not given), the inhibition [1] was 100% (inactive), the concentration for >50% inhibition [2] was 10 µM and the concentration for >50% inhibition [3] was 10 µM. The concentration for >50% inhibition [4] was 0.1 µM, the concentration for >50% inhibition [5] was 10 µM and the inhibition [6] was 100% (inactive).
`CC(C)(C)OC(=O)N1CCN2C(=O)N(OC(=O)N3CCC(C(=O)Nc4ccccc4)CC3)C(=O)C2C1` (stereo not given) was tested, and the inhibition [1] was 25% (inactive), the concentration for >50% inhibition [2] was 100 µM and the concentration for >50% inhibition [4] was 0.1 µM. The inhibition [6] was 50% (inactive).
In the case of `O=C(ON1C(=O)C2CN(C(=O)c3ccc(F)c([N+](=O)[O-])c3)CCN2C1=O)N1CCC(CCc2ccc(Cl)cc2)CC1` (stereo not given), the inhibition [1] is reported as 100%, the concentration for >50% inhibition [7] is reported as 10 µM and the concentration for >50% inhibition [2] is reported as 10 µM. It also gave a concentration for >50% inhibition [3] of 100 µM, a concentration for >50% inhibition [4] of 0.1 µM and an inhibition [6] of 100%.
`O=C(ON1C(=O)C2CN(C(=O)N3CCCC3)CCN2C1=O)N1CCC(CCc2ccc(Cl)cc2)CC1` (stereo not given) gave an inhibition [1] of 100%, a concentration for >50% inhibition [7] of 100 µM and a concentration for >50% inhibition [2] of 1 µM. For the same molecule, the concentration for >50% inhibition [3] was 100 µM, the concentration for >50% inhibition [4] was 0.1 µM and the concentration for >50% inhibition [5] was 100 µM. The inhibition [6] was 100%.
`COC(=O)C1CCN(C(=O)ON2C(=O)C3CN(C(=O)OC(C)(C)C)CCN3C2=O)CC1` (stereo not given) was tested, and the inhibition [1] was 25% (inactive), the concentration for >50% inhibition [4] was 0.1 µM and the inhibition [6] was 25% (inactive).
In the case of `CC(C)(C)OC(=O)N1CCN2C(=O)N(OC(=O)N3CCCCC3)C(=O)C2C1` (stereo not given), the inhibition [1] is reported as 25% (inactive), the concentration for >50% inhibition [4] is reported as 0.1 µM and the concentration for >50% inhibition [8] is reported as 100 µM. The inhibition [6] was 25% (inactive).
In the case of `O=C(ON1C(=O)C2CN(Cc3ccc(Br)cc3)CCN2C1=O)N1CCC(CCc2ccc(Cl)cc2)CC1` (stereo not given), the inhibition [1] is reported as 90% (inactive), the concentration for >50% inhibition [2] is reported as 1 µM and the concentration for >50% inhibition [3] is reported as 100 µM. The concentration for >50% inhibition [4] was 0.1 µM, the concentration for >50% inhibition [5] was 1 µM and the inhibition [6] was 90% (inactive).
With `O=C(Cc1ccccc1)N1CCN2C(=O)N(OC(=O)N3CCC(CCc4ccc(Cl)cc4)CC3)C(=O)C2C1` (stereo not given) the inhibition [1] was 100%, the concentration for >50% inhibition [2] was 1 µM and the concentration for >50% inhibition [3] was 10 µM. The concentration for >50% inhibition [4] was 0.1 µM and the inhibition [6] was 100%.
`COc1ccc(C(=O)N2CCN3C(=O)N(OC(=O)N4CCC(CCc5ccc(Cl)cc5)CC4)C(=O)C3C2)cc1` (stereo not given) showed an inhibition [1] of 100%, a concentration for >50% inhibition [7] of 10 µM and a concentration for >50% inhibition [2] of 10 µM. For the same molecule, the concentration for >50% inhibition [3] was 10 µM, the concentration for >50% inhibition [4] was 0.1 µM and the inhibition [6] was 100%.
In the case of `CC(C)(C)OC(=O)N1CCN2C(=O)N(OC(=O)N3CCN(C(c4ccc(Cl)cc4)c4ccc(Cl)cc4)CC3)C(=O)C2C1` (stereo not given), the inhibition [1] is reported as 60% (inactive), the concentration for >50% inhibition [4] is reported as 0.1 µM and the inhibition [6] is reported as 60% (inactive).
In the case of `O=C(ON1C(=O)C2CN(C(=O)N3CCOCC3)CCN2C1=O)N1CCC(CCc2ccc(Cl)cc2)CC1` (stereo not given), the inhibition [1] is reported as 100%, the concentration for >50% inhibition [7] is reported as 100 µM and the concentration for >50% inhibition [2] is reported as 10 µM. The concentration for >50% inhibition [3] was 100 µM, the concentration for >50% inhibition [4] was 0.1 µM and the inhibition [6] was 100%.
`O=C(ON1C(=O)C2CN(C(=O)c3ccc(Br)cc3)CCN2C1=O)N1CCC(CCc2ccc(Cl)cc2)CC1` (stereo not given) was tested, and the inhibition [1] was 100%, the concentration for >50% inhibition [7] was 10 µM and the concentration for >50% inhibition [2] was 10 µM. The concentration for >50% inhibition [3] was 100 µM, the concentration for >50% inhibition [4] was 0.1 µM and the concentration for >50% inhibition [5] was 100 µM. It also gave an inhibition [6] of 100%.
`CC(C)(C)OC(=O)N1CCN2C(=O)N(OC(=O)N3CCN(CCc4ccccc4)CC3)C(=O)C2C1` (stereo not given) was tested, and the inhibition [1] was 75% (inactive), the concentration for >50% inhibition [7] was 100 µM and the concentration for >50% inhibition [2] was 100 µM. For the same molecule, the concentration for >50% inhibition [4] was 0.1 µM and the inhibition [6] was 90% (inactive).
For `Cc1ccc(C(=O)N2CCN3C(=O)N(OC(=O)N4CCC(CCc5ccc(Cl)cc5)CC4)C(=O)C3C2)cc1` (stereo not given), the inhibition [1] was 100%, the concentration for >50% inhibition [7] was 10 µM and the concentration for >50% inhibition [2] was 10 µM. It also gave a concentration for >50% inhibition [3] of 100 µM, a concentration for >50% inhibition [4] of 0.1 µM and an inhibition [6] of 100%.
Work on `CC(C)(C)CC(=O)N1CCN2C(=O)N(OC(=O)N3CCC(CCc4ccc(Cl)cc4)CC3)C(=O)C2C1` (stereo not given) yielded an inhibition [1] of 100%, a concentration for >50% inhibition [7] of 10 µM and a concentration for >50% inhibition [2] of 1 µM. It also gave a concentration for >50% inhibition [3] of 10 µM, a concentration for >50% inhibition [4] of 0.1 µM and a concentration for >50% inhibition [5] of 100 µM. For the same molecule, the inhibition [6] was 100%.
With `CC(C)(C)OC(=O)N1CCN2C(=O)N(OC(=O)N3CCOCC3Cc3ccccc3)C(=O)C2C1` (stereo not given) the inhibition [1] was 0% (inactive), the concentration for >50% inhibition [4] was 0.1 µM and the inhibition [6] was 0% (inactive).
`CCN(C(=O)C1CCN(C(=O)ON2C(=O)C3CN(C(=O)OC(C)(C)C)CCN3C2=O)CC1)c1ccccc1` (stereo not given) was tested, and the inhibition [1] was 100% (inactive), the concentration for >50% inhibition [4] was 0.1 µM and the inhibition [6] was 100% (inactive).
`CN(C)c1ccc(C(=O)N2CCN3C(=O)N(OC(=O)N4CCC(CCc5ccc(Cl)cc5)CC4)C(=O)C3C2)cc1` (stereo not given) was tested, and the inhibition [1] was 100%, the concentration for >50% inhibition [7] was 10 µM and the concentration for >50% inhibition [2] was 10 µM. The concentration for >50% inhibition [4] was 0.1 µM and the inhibition [6] was 100%.
For `O=C(ON1C(=O)C2CN(C(=O)N3CCCCC3)CCN2C1=O)N1CCC(CCc2ccc(Cl)cc2)CC1` (stereo not given), the inhibition [1] was 100%, the concentration for >50% inhibition [7] was 10 µM and the concentration for >50% inhibition [2] was 1 µM. The concentration for >50% inhibition [3] was 10 µM, the concentration for >50% inhibition [4] was 0.1 µM and the concentration for >50% inhibition [5] was 10 µM. It also gave an inhibition [6] of 100%.
`CC(C)(C)OC(=O)N1CCN2C(=O)N(OC(=O)N3CCC(CCc4ccc(Cl)cc4)CC3)C(=O)C2C1` (stereo not given) showed an inhibition [1] of 100%, a concentration for >50% inhibition [7] of 10 µM and a concentration for >50% inhibition [2] of 1 µM. It also gave a concentration for >50% inhibition [3] of 100 µM, a concentration for >50% inhibition [4] of 0.1 µM and an inhibition [6] of 100%.

— PubChem BioAssay AID743117 (The Scripps Research Institute Molecular Screening Center, 2013)
